According to patent US20050124618A1, “Methods of modulating angiogenesis and cancer cell proliferation” (priority 2003, published 2005):
Entries after “also recorded” stand apart in the source; their conditions may differ.

Experiments:
[1] = tested on: HUVECs; assay: Proliferation of normal HUVECs (comparison with U251); format: cell-based, human; details: 10 μM HET0016, 48 hrs; DDMS concentration not given
Procedure: Mean values±SD from three separate experiments, each performed in triplicate, are presented. *** indicates p<0.001 from the respective control values.
Cell Proliferation Assays: Proliferation studies were performed with cultures plated at a density that ensured exponential growth for at least 5 days. Growth medium was generally replaced by serum-free medium 24 hr after plating. Cells were treated with various concentrations of a given compounds for 24 or 48 hr as described in the Methods. […] Organic solvent never exceeded 0.1% of total culture volume. Cells were harvested by exposure to 0.05% trypsin/EDTA and counted using a hemocytometer.

[2] = tested on: SAPK/JNK; assay: Western blot of phospho-SAPK/JNK in 9L cells; format: cell-based, rat; details: 10 μM HET0016; 4 hr, 24 hr, 48 hr
Procedure: They were then pelleted by centrifugation at 1,000 g for 5 min at 4° C. The cells were lysed by adding RIPA buffer [20 mM HEPES (pH 7.4), 100 mM NaCl, 1% Nonidet P-40, 0.1% SDS, 1% deoxycholic acid, 10% glycerol, 1 mM EDTA, 1 mM NaVO3, 50 mM NaF, and protease inhibitors Set 1 (Calbiochem, La Jolla, Calif.)]. The plates were then scraped and the cells were collected in a 1.5-ml centrifuge tube, followed by incubation on ice for 30 min. The cell homogenates were centrifuged for 10 min at 14,000 g and 4° C.; the pellets were discarded and the protein concentrations in the supernatant determined by bicinchoninic acid (BCA) protein assay.
Typically, 20 μg of protein obtained from the cell homogenates was separated on a 14% Tris-glycine gel (Invitrogen) and transferred to a PVDF membrane (Biotrace, Bothell, Wash.). The membranes were blocked for 1 hr at room temperature with blocking buffer [0.2% I-Block reagent (Tropix, Bedford, Mass.), 0.1% Tween-20 in 1×PBS] and then incubated with the primary antibodies in blocking buffer overnight at 4° C. Phospho-p42/p44 MAPK (T202/Y204)(20G11), and phospho-SAPK/JNK (T183/Y185) (98F2) monoclonal antibodies were purchased from Upstate (Waltham, Mass.). […] Both phospho-p44/p42MAPK and phospho-SAPK/JNK were detected using 1:1000 antibody dilutions. […]

[3] = tested on: CYP4A11 mRNA; assay: RT-PCR of CYP4A11 mRNA in U251 cultures; format: cell-based, human; details: 10 μM HET0016 for 24 hr
Procedure: EtOH-treated cultures were used as solvent controls. Briefly, total RNA was isolated with Trizol reagent (Invitrogen) and 1-2 μg RNA was used to synthesize cDNA using a First Strand synthesis kit (Invitrogen). We used PCR primers that specifically recognize CYP4A11, and β-actin-specific primers. A 1 μCi ^32P per sample was added to Platinum PCR Supermix (Invitrogen). The PCR conditions used to amplify CYP4A 11 and β-actin consisted of a precycle of 95° C for 3 min followed by 35 cycles of 95° C for 45 s, 52° C. for 30 s, and 72° C. for 2 min, with final extension at 72° C. for 10 min. The primers used were: β-actin forward primer, 5′-TGCGTGACATTAAGGAGAAG-3′ (SEQ ID NO:3); β-actin reverse primer, 5′-GCT CGT AGC TCT TCT CCA-3′ (SEQ ID NO:4); CYP4A11 forward primer, 5′-CCACCTGGACCAGAGGCCCTACACCACC-3′ (SEQ ID NO:5); CYP4A11 reverse primer, 5′-AGGATATGGGCAGACAGGAA-3′(SEQ ID NO:6). PCR products were subjected to electrophoresis in 5% bis-acrylamide gels and visualized by autoradiography.

[4] = tested on: VEGF; assay: Western blot of VEGF protein expression in TA muscle; format: in vivo, rat
Procedure: Western blot analysis to detect the presence of VEGF protein: The 100-mg TA muscle specimens were homogenized, and the protein was suspended in potassium buffer (10 mM). Five micrograms of protein (as determined by a protein assay kit, Bio-Rad; Hercules, Calif.) from the TA and a tumor cell line known to express VEGF at high levels (C6, American Type Culture Collection, 107-CCL) were separated on a 12% denaturing polyacrylamide gel. The gels were transferred to a nitrocellulose membrane, which was blocked overnight in 5% nonfat dry milk diluted in Tris-buffered saline (50 mM Tris and 750 mM NaCl, pH 8) with 0.08% Tween 20 (Bio-Rad). The blots were then incubated with a […] antibody to a peptide derived from the human VEGF sequence (1:1,000 dilution, clone G143-850, Pharmingen) for 2 h at room temperature. Washed blots were then incubated with goat anti-mouse secondary antibody at a dilution of 1:1,000 for 1 h at room temperature and then subjected to a SuperSignal West Dura chemiluminescence substrate (Pierce; Rockford, Ill.) detection system. Membranes were exposed to X-ray film (Fuji Medical; Stamford, Conn.) for 15 to 30 s and developed using a Kodak M35 X-Omat processor. For the quantitative VEGF analysis, film was always exposed for a period of time that ensured that all signals were within the linear range of the detection of the film. The VEGF band intensity was quantified using a morphometry imaging system (Metamorph, Universal Imaging; West Chester, Pa.), and values are expressed as a percentage of the C6 tumor cell standard.

With `CCCCc1ccc(N=CNO)c(C)c1` [HET0016, N-hydroxy-N′-(4-butyl-2 methylphenyl) formamidine] as the molecule, how does the “effect on basal growth or proliferation of normal HUVECs” value [1] read?
The value was “Neither DDMS or HET0016 had any effect; also recorded: had no effect on the basal growth or proliferation; also recorded: had no effect on the proliferation”.

What about the “phosphorylation of SAPK/JNK” value [2] of the same molecule?
Its value is “decreases the phosphorylation; also recorded: significantly reduced the phosphorylation; also recorded: inhibition appears to peak at 48 hr”.

And the CYP4A11 transcript levels [3]?
The CYP4A11 transcript levels was “decreased”.

And the “effect on increases in VEGF protein expression induced by electrical stimulation” value ([4]; 7 days stimulation)?
Its value is “did not block”.

What about the “effect on baseline VEGF expression” value ([4]; 7 days treatment) of the same molecule?
Its value is “Neither HET0016 nor ABT had any effect”.
